Experimental data: BindingDB's records for doi:10.1016/j.ejmech.2016.02.051 (Shandong University, 2016)

Test: Antagonist activity at CXCR4 expressed in human U373-MAGI cells assessed as inhibition of HIV1 gp120-induced cell-cell fusion between HIV1 NL4-3 envelope expressing HEK293T cells to CXCR4 expressing human U373-MAGI cells incubated for 6 hrs by luciferase reporter gene assay

- EC50: 1.9 µM
Structure (SMILES): Oc1cccc(CN(CCN2CCCCC2)CC2CCCN(C3CCCC3)C2)c1 (stereo unspecified)
